Patent US8435947B2, “Endothelial nitric oxide synthase antagonists and uses thereof for inhibiting oxygen toxicity” (Medical College of Georgia Research Institute, Inc., priority 2010, dated 2013)

Legend:
COS-7 cells = assay: superoxide formation in COS-7 cells transfected with wild type or mutant eNOS; assay type: cell-based; conditions: ETU 100 μm or PEG-SOD
Excerpt: Human eNOS gene (GenBank™ M93718.1) was cloned into HindIII and XbaI sites of pcDNA3 vector and regarded as wild-type eNOS. […] The site-directed mutagenesis was custom-made by Retrogen (San Diego, Calif.). The sequences of both strands of the gene in the mutated region were verified by using ABI 3730 automated sequencer. Plasmids containing wild-type eNOS cDNA or eNOS mutant cDNA were transfected into COS-7 cells using Lipofectamine LTX with PLUS reagent (Invitrogen, Carlsbad, Calif.) according to the manufacturer's protocol. 48 h after transfection, cells were used for co-immunoprecipitation and assays for NO and superoxide generation.
After wild-type and eNOS mutant transfection, ionomycin (2 μm) was added to the cells. After 30 min of incubation, culture medium was collected and ethanol-precipitated to remove proteins. 50 μl of the reaction mix were loaded to the SIEVERS machine for NOx measurement according to standard manufacturer's instructions (Church, J. E., and Fulton, D. (2006) J. Biol. Chem. 281, 1477-88). In some experiments, N^G-nitro-1-arginine methyl ester (L-NAME), a specific eNOS inhibitor, was used to inhibit NO production. […] For superoxide assay, after incubation with ABS peptides, the spin trap CMH was added to the cells. […] Protein contents in the cell lysates were determined by Lowry's method.

[1] = tested on: pulmonary artery endothelial cells; assay: superoxide formation in endothelial cells (CMH spin trap, EPR); assay type: cell-based, pigs; conditions: ETU 100 μm
Protocol: (§1) To measure NO production, endothelial cells were incubated with ABS peptides for 3 h. Then ionomycin (2 μM) was added to the cells. After an additional 30 min, culture medium was collected and ethanol-precipitated to remove proteins. 50 μl of the reaction mix were loaded to the SIEVERS machine for NOx measurement as described above. For superoxide assay, after incubation with ABS peptides, the spin trap CMH was added to the cells. Superoxide from cells was trapped for 1 h, and then cells were scraped and subjected to EPR spectroscopy.

PAEC [2] = assay: superoxide radicals in hyperoxic PAEC (DHE fluorescence); assay type: cell-based, pigs; conditions: 95% oxygen 24 h, tiron 5 mM
Protocol: After hyperoxic exposure, cells were loaded with 10 μM dihydroethidine (DHE) for 30 min. […] The excitation and emission wavelengths were 510 nm and 590 nm.

[3] = tested on: pulmonary artery endothelial cells; assay: endothelial monolayer wound repair; assay type: cell-based, pigs; conditions: PEG-SOD 100 units/ml, NOC-18 10 μm
Protocol: Pulmonary artery endothelial cells were incubated with ABS peptides for 3 h. Then endothelial monolayer wound repair in the absence and presence of PEG-SOD (100 units/ml) and NOC-18 (10 μm) was measured as previously reported (Su, Y., et al. (2006) FASEB J. 20, 1443-51). Endothelial monolayer wound repair distance was expressed as the width of the wound before treatment subtracted by that after treatment.

[4] = molecular target: T1, F-actin (polymerized human β-actin) (Homo sapiens, UniProt P60709); assay: F-actin binding spin-down assay; conditions: peptide 10 μM, 23 μM F-actin, 30 min, 150,000×g 2 h
T1 construct: purchased Cytoskeleton, Inc. (Denver, Co)
Protocol: The binding capacities of the peptides to β-actin were measured by using an F-actin binding spin-down assay kit from Cytoskeleton, Inc. (Denver, Co). Monomeric human β-actin was polymerized into F-actin in F-actin buffer (5 mM Tris-HCl, pH 7.8, 1 mM ATP, 0.5 mM DTT, 0.2 mmM CaCl2, 0.2 mM MgCl2, and 100 mM KCl) for 1 h at 24° C. ABS peptides at final concentrations of 10 μM were incubated alone or with 23 μM F-actin in F-actin buffer for 30 min in a total volume of 50 μl. The mixtures were centrifuged at 150,000×g for 2 h at 24° C. in a Beckman TLA-100 rotor. Supernatant and pellet fractions were resuspended in loading buffer and subjected to SDS-PAGE. The gel was stained with Coomassie Blue. The density of the band was measured using Software Image J.
Actin binding capabilities of the synthesized ABS peptides corresponding to putative ABSs in eNOS were evaluated by the F-actin binding spin-down assay. ABS peptides 326 (P326), control peptides, ABS peptides 492 (P492), and ABS peptides 245 (P245) at final concentrations of 10 μm were incubated for 30 min alone or with 23 μm F-actin in F-actin buffer containing 2.5 μM ATP and 2.5 μM DTT. After high speed centrifugation at 150,000×g for 2 h, the supernatants and pellets were subjected to SDS-PAGE analysis.

PAEC [5] = conditions: peptide 20 μM, 95% oxygen 24 h
Protocol: (§2) Third- to sixth-passage cells in monolayer culture were maintained in RPMI 1640 medium containing 4% fetal bovine serum and antibiotics (10 units/ml penicillin, 100 μg/ml streptomycin, 20 μg/ml gentamicin, and 2 μg/ml Fungizone) and were used 2 or 3 days after confluence.

PAEC [6] = assay: peroxynitrite formation in hyperoxic PAEC (APF fluorescence); assay type: cell-based, pigs; conditions: 95% oxygen 24 h, uric acid 100 μM
Protocol: as §2
To reduce β-actin availability to eNOS, the β-actin mRNA was silenced using its siRNA as previously reported by us (Kondrikov, D., et al. (2006) Am. J. Physiol. Lung Cell Mol. Physiol. 290, L41-L50).

[7] = tested on: pulmonary artery endothelial cells; assay: NO production in endothelial cells (NOx, SIEVERS); assay type: cell-based, pigs
Protocol: After wild-type and eNOS mutant transfection, ionomycin (2 μm) was added to the cells. After 30 min of incubation, culture medium was collected and ethanol-precipitated to remove proteins. 50 μl of the reaction mix were loaded to the SIEVERS machine for NOx measurement according to standard manufacturer's instructions (Church, J. E., and Fulton, D. (2006) J. Biol. Chem. 281, 1477-88). In some experiments, N^G-nitro-1-arginine methyl ester (L-NAME), a specific eNOS inhibitor, was used to inhibit NO production. […] For superoxide assay, after incubation with ABS peptides, the spin trap CMH was added to the cells. Superoxide from cells was trapped for 1 h, and then cells were scraped and subjected to EPR spectroscopy as previously described (Sud, N., et al. (2008) Am. J. Physiol. Cell Physiol. 294, C1407-18). Protein contents in the cell lysates were determined by Lowry's method.
as §1, with “Superoxide from cells was trapped for 1 h, and then cells were scraped and subjected to EPR spectroscopy.” left out

purified eNOS [8] = assay: superoxide generation by purified eNOS, spin-trapping EPR spectroscopy; assay type: biochemical, human; conditions: peptide 20 μm; for β-actin-induced decrease in superoxide formation: β-actin 2.0 μm
Protocol: eNOS-derived superoxide generation was measured by electron paramagnetic resonance (EPR) spectroscopy and spin trapping as previously described (Sud, N., et al. (2008) Am. J. Physiol. Cell Physiol. 294, C1407-18). 50 μl of reaction mix containing 50 mM HEPES buffer, 1 mM NADPH, 100 μM Larginine, 1 mM CaCl2, 10 μg/ml calmodulin, and 1 μg of purified eNOS were incubated at 37° C. for 60 min. 12.5 μl of spin probe N1-hydroxy-3-methoxy-carbonyl-2,2,5,5-tetramethyl-pyrrolidine (CMH) in EPR buffer were added to the reaction mix. 35 μl of the final reaction mix were loaded into a 50-μl capillary tube and analyzed with a MiniScopeMS200 EPR (Magnetech, Berlin, Germany). A reaction curve was generated by adding 1 unit/ml of xanthine oxidase into 500 μM xanthine solution in buffered PBS (pH 7.4), which contains 5 μM diethyldithiocarbamate and 25 μMm desferrioxamine to inhibit any conversion of superoxide into either hydrogen peroxide or hydroxyl radical via Fenton reaction. Reactions were allowed to proceed at 25° C. for up to 40 min. Following incubation, ˜35 μl of each reaction mixture was loaded into a 50 μl capillary tube and analyzed immediately with EPR spectroscopy. EPR spectra were analyzed for amplitude using […] software (version 2.02, Magnettech). Given that 1 unit of xanthine oxidase will convert 1 μmol of xanthine per minute at 25° C., based on this standard curve, it was calculated that 1 EPR amplitude units is equivalent of 0.35 pmol of superoxide.

purified eNOS [9] = assay: L-citrulline assay with purified eNOS; assay type: biochemical, human; conditions: peptide 20 μm; for β-actin-induced increase in L-citrulline production: β-actin 2.0 μm
Protocol: (§3) Wild-type and mutant eNOS proteins in COS-7 cells were purified. The catalytic activity of purified eNOS mutant protein was assayed by the measurement ofl-[^3H]citrulline formation from 1-[^3H]arginine as reported previously (Su, Y., et al. (2003) Am. J. Physiol. Cell Physiol. 284, C1542-49). To determine NADPH consumption by eNOS, 0.3 mm NADPH was added to 200 μl of reaction mix containing 1 μg eNOS, 1 μM FAD, 1 μmM FMN, 10 μg/ml calmodulin, 100 μMm L-arginine, 1 mM CaCl2, 10 μg/ml calmodulin, and 2.5 mM ATP. The reaction was monitored at […] for 10 min. NADPH consumption was calculated by using a molar extinction coefficient 6.22 mm^−·cm^−1. The superoxide formation from purified eNOS mutant was measured by spin trapping and EPR spectroscopy.

purified eNOS [10] = assay: NO (NOx) production by purified eNOS in vitro; assay type: biochemical, human; conditions: peptide 20 μm; for β-actin-induced increase in NO production: β-actin 2.0 μm
Protocol: NO production was determined by measuring NOx (NO2 and NO3). Purified eNOS and β-actin were preincubated at room temperature for 30 min and then added to a 50-μl reaction mix containing 50 mM HEPES buffer, 1 mM NADPH, 100 μmM Larginine, 1 mmM CaCl2, 10 μg/ml calmodulin, 4 μM BH4. The mixture was incubated at 37° C. for 30 min. 40 μl of the reaction mix were loaded to the SIEVERS machine for NOx measurement according to standard manufacturer's instructions as previously described (Church, J. E., and Fulton, D. (2006) J. Biol. Chem. 281, 1477-88). For experiments with ABS peptides, β-actin and peptides were preincubated at room temperature for 20 min before eNOS protein was added.

purified eNOS [11] = assay: NADPH consumption assay with purified eNOS; assay type: biochemical, human; conditions: peptide 20 μm, β-actin 2.0 μm, absence of BH4
Protocol: as §3

## CCSC(=N)N [ETU, 2-ethyl-2-thiopseudourea, reference compound]
COS-7 cells
  superoxide generated from COS-7 cells, wild type versus eNOS mutant, in the presence of the agent: the amounts of superoxide generated from COS-7 cells containing wild type and eNOS mutant were comparable
[1]
  P326TAT-induced increase in superoxide formation: inhibited P326TAT-induced increase in superoxide formation

## O=S(=O)(O)c1cc(O)c(O)c(S(=O)(=O)O)c1 [tiron]
PAEC [2]
  increase in DHE fluorescence intensity (superoxide radical) in hyperoxic PAEC: prevented the increase in the fluorescence intensity in hyperoxic PAEC

## NCCN(CCN)/[N+]([O-])=N/O [NOC-18, reference compound]
[3]
  P326TAT-induced decrease in monolayer wound repair: prevented P326TAT-induced decrease in monolayer wound repair

## NSQLVRYAGYRQQDGSVRGDPANVEITEL [ABS peptide 245]
[4]
  peptide pulled down to the pellets with F-actin: not pulled down to the pellets with F-actin

## RKKRRQRRRAAGARAYAA [control peptide TAT, reference compound]
PAEC [5]
  tyrosine nitration of proteins at 250, 100, 75, and 60 kDa, hyperoxia versus normoxia: hyperoxia induced the increases in tyrosine nitration of proteins

## O=c1[nH]c(=O)c2[nH]c(=O)[nH]c2[nH]1 [uric acid, reference compound]
PAEC [6]
  hyperoxia-induced increase in APF fluorescence intensity (peroxynitrite): prevented hyperoxia-induced increase in the fluorescence intensity

## COC(=O)[C@@H](N)CCCNC(=N)N[N+](=O)[O-] [L-NAME, N^G-nitro-1-arginine methyl ester, reference compound]
[7]
  inhibition of NO production: 90%

## AGARAYAA [control peptide for peptide 326, reference compound]
Purified eNOS [8]
  β-actin-induced decrease in superoxide formation: did not affect β-actin-induced changes in the production of NO, L-citrulline, and superoxide from eNOS
Purified eNOS [9]
  β-actin-induced increase in L-citrulline production: did not affect β-actin-induced changes in the production of NO, L-citrulline, and superoxide from eNOS
Purified eNOS [10]
  β-actin-induced increase in NO production: did not affect β-actin-induced changes in the production of NO, L-citrulline, and superoxide from eNOS

## LGLRWYAL [ABS peptide 326]
Purified eNOS [8]; without β-actin
  superoxide formation from eNOS, peptide per se: did not affect NO and L-citrulline production and superoxide formation
Purified eNOS [8]
  β-actin-induced decrease in superoxide formation: prevented
Purified eNOS [9]; without β-actin
  L-citrulline production from eNOS, peptide per se: did not affect NO and L-citrulline production and superoxide formation
Purified eNOS [9]
  β-actin-induced increase in L-citrulline production: prevented β-actin-induced increase in NO and L-citrulline production
Purified eNOS [11]
  β-actin-induced decrease in NADPH consumption: prevented β-actin-induced decrease in NADPH consumption
Purified eNOS [10]; without β-actin
  NO production from eNOS, peptide per se: did not affect NO and L-citrulline production and superoxide formation
Purified eNOS [10]
  β-actin-induced increase in NO production: prevented β-actin-induced increase in NO and L-citrulline production
